Measured values reported in patent publication US20250230165A1, “HETEROCYCLIC COMPOUNDS FOR USE IN THE TREATMENT OF CANCER” (ARTIOS PHARMA LIMITED, priority 2021, published 2025).

Molecular target: T1, Human Polθ polymerase domain (aa1820-2590) (Homo sapiens, UniProt O75417)
T1 construct: Human Polθ polymerase domain (aa1820-2590) was expressed in E. coli; made in house; host or cells: E. coli
T1 sequence (O75417 1820-2590): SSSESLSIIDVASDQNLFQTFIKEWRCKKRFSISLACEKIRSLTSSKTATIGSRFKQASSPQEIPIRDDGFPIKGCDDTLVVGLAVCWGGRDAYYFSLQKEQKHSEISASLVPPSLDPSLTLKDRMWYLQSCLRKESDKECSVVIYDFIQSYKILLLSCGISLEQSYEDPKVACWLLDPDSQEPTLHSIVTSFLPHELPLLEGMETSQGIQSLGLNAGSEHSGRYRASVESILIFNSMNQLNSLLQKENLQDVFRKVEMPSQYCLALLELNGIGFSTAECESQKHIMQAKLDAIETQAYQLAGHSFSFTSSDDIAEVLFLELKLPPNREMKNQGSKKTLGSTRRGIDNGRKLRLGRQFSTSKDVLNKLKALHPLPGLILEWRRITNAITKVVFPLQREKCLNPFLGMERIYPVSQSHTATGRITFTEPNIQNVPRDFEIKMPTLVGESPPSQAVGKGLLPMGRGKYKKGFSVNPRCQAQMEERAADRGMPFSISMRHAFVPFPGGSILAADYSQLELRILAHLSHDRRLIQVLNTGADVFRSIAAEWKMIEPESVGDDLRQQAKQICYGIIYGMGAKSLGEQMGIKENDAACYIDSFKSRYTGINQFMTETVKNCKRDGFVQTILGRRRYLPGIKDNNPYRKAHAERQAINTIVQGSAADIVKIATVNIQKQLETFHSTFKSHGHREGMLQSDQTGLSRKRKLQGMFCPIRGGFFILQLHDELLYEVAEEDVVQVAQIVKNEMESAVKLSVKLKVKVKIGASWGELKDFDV
Assay: Polθ Polymerase Domain Kinact/KI Assay (PicoGreen)
Assay type: biochemical
Details: 0.8 nM Polθ, 100 nM DNA substrate, kobs vs [I] fit for 2-step covalent inhibitor
In short: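 PicoGreen fluorescence read-out of primer extension; progress curves per inhibitor concentration fitted for kobs, then kobs vs [I] fitted to a two-step covalent model to give Kinact and KI. Conditions: 0.8 nM enzyme, 100 nM DNA substrate, […].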

C=CC(=O)N1CCN2C(=O)[C@H](C)N(CCN3C[C@H]4CC(=O)N(c5cc(C(F)(F)F)cc(C)n5)[C@@H]4C(=O)N(C)c4cccc(F)c43)C[C@@H]2C1 (single isomer, unassigned) [Example 108]
Kinact/Kl: 2.35e+06 M⁻¹ s⁻¹

C=CC(=O)N1CC2(C1)CN(C(=O)CN1C[C@H]3CC(=O)N(c4cc(C(F)(F)F)cc(C)n4)[C@@H]3C(=O)N(C)c3cccc(F)c31)c1nccn12 [Example 106, (3aR,11aS)-5-(2-(1-acryloylspiro[azetidine-3,3′-imidazo[1,2-a]imidazo]-1′(2′H)-yl)ethyl)-6-fluoro-10-methyl-1-(6-methyl-4-(trifluoromethyl)pyridin-2-yl)-1,3a,4,5,10,11a-hexahydro-2H-benzo[b]pyrrolo[2,3-f][1,4]diazocine-2,11(3H)-dione]
Kinact/Kl: 1.14e+06 M⁻¹ s⁻¹

C=C(CN(C)C)C(=O)N[C@@H]1CCc2nc(CN3C[C@H]4CC(=O)N(c5cc(C(F)(F)F)cc(C)n5)[C@@H]4C(=O)N(C)c4cccc(C)c43)cn2C1 (mixture of isomers) [Example 329a, N-((R/S)-2-(((3aR, 11aS)-6,10-dimethyl-1-(6-methyl-4-(tri-fluoromethyl)pyridin-2-yl)-2,11-dioxo-1,2,3,3a,4,10,11,11a-octahydro-5H-benzo [b]pyrrolo[2,3-f][1,4]diazocin-5-yl)methyl)-5,6,7,8-tetrahydro-imidazo[1,2-a]pyridin-6-yl)-2-((dimethyl-amino)methyl)acryl-amide]
Kinact/Kl: 1.73e+06 M⁻¹ s⁻¹

C=CC(=O)N1CCn2cc(CN3C[C@H]4CC(=O)N(c5cc(C(F)(F)F)cc(C)n5)[C@@H]4C(=O)N(C)c4cccc(C)c43)nc2C1 [Example 203, (3aR,11aS)-5-((7-acryloyl-5,6,7,8-tetrahydroimidazo [1,2-a]pyrazin-2-yl)methyl)-6,10-dimethyl-1-(6-methyl-4-(trifluoromethyl)pyridin-2-yl)-1,3a,4,5,10,11a-hexahydro-2H-benzo[b]pyrrolo [2,3-f][1,4]diazocine-2,11(3H)-dione]
Kinact/Kl: 4.32e+06 M⁻¹ s⁻¹

C=CC(=O)N1CC(N2CCC(CCN3C[C@H]4CC(=O)N(c5cc(C(F)(F)F)cc(C)n5)[C@@H]4C(=O)N(C)c4cccc(F)c43)CC2)C1 [Example 215, (3aR,11aS)-5-(2-(1-(1-acryloylazetidin-3-yl)piperidin-4-yl)ethyl)-6-fluoro-10-methyl-1-(6-methyl-4-(trifluoromethyl)pyridin-2-yl)-1,3a,4,5,10,11a-hexahydro-2H-benzo[b]pyrrolo [2,3-f][1,4] diazocine-2,11 (3H)-dione]
Kinact/Kl: 1.21e+06 M⁻¹ s⁻¹

C=CC(=O)N1Cc2cnc(CN3C[C@H]4CC(=O)N(c5cc(C(F)(F)F)cc(C)n5)[C@@H]4C(=O)N(C)c4cccc(Cl)c43)nc2C1 [Example 278, (3aR,11aS)-5-((6-acryloyl-6,7-dihydro-5H-pyrrolo[3,4-d]pyrimidin-2-yl)methyl)-6-chloro-10-methyl-1-(6-methyl-4-(trifluoromethyl)pyridin-2-yl)-1,3a,4,5,10,11a-hexahydro-2H-benzo[b]pyrrolo[2,3-f][1,4]diazocine-2,11(3H)-dione]
Kinact/Kl: 770000 M⁻¹ s⁻¹

C=C(CN(C)C)C(=O)N1CC(CCCN2C[C@H]3CC(=O)N(c4cc(C(F)(F)F)cc(C)n4)[C@@H]3C(=O)N(C)c3cccc(C)c32)C1 [Example 327, (3aR,11aS)-5-(3-(1-(2-((dimethylamino)-methyl)acryloyl)-azetidin-3-yl)propyl)-6,10-dimethyl-1-(6-methyl-4-(trifluoro-methyl)pyridin-2-yl)-1,3a,4,5,10,11a-hexa-hydro-2H-benzo[b] pyrrolo[2,3-f][1,4] diazocine-2,11(3H)-dione]
Kinact/Kl: 3.64e+06 M⁻¹ s⁻¹

C=C(CN(C)C)C(=O)N1CC(CCC(F)CN2C[C@H]3CC(=O)N(c4cc(C(F)(F)F)cc(C)n4)[C@@H]3C(=O)N(C)c3cccc(Cl)c32)C1 (stereo partly drawn) [Example 302, (3aR,11aS)-6-chloro-5-(4-(1-(2-((dimethylamino)methyl)acryloyl)azetidin-3-yl)-2-fluorobutyl)-10-methyl-1-(6-methyl-4-(trifluoromethyl)pyridin-2-yl)-1,3a,4,5,10,11a-hexahydro-2H-benzo[b]pyrrolo[2,3-f][1,4]diazocine-2,11(3H)-dione]
Kinact/Kl: 3.04e+06 M⁻¹ s⁻¹

C=C(CN(C)C)C(=O)NCc1ccc(CN2C[C@H]3CC(=O)N(c4cc(C(F)(F)F)cc(C)n4)[C@@H]3C(=O)N(C)c3cccc(C)c32)cc1 [Example 189, N-(4-(((3aR,11aS)-6,10-dimethyl-1-(6-methyl-4-(trifluoromethyl)-pyridin-2-yl)-2,11-dioxo-1,2,3,3a,4, 10,11,11a-octa-hydro-5H-benzo [b]pyrrolo[2,3-f] [1,4]diazocin-5-yl)-methyl)benzyl)-2-((dimethylamino)-methyl)acrylamide]
Kinact/Kl: 3.35e+06 M⁻¹ s⁻¹

C=CC(=O)N1Cc2nc(CN3C[C@H]4CC(=O)N(c5cc(C(F)(F)F)cc(C)n5)[C@@H]4C(=O)N(C)c4cccc(Cl)c43)ccc2C1CO (stereo partly drawn) [Example 239, (3aR,11aS)-5-((6-acryloyl-5-(hydroxymethyl)-6,7-dihydro-5H-pyrrolo[3,4-b]pyridin-2-yl)methyl)-6-chloro-10-methyl-1-(6-methyl-4-(trifluoromethyl)pyridin-2-yl)-1,3a,4,5,10,11a-hexahydro-2H-benzo[b]pyrrolo[2,3-f][1,4]diazocine-2,11(3H)-dione]
Kinact/Kl: 730000 M⁻¹ s⁻¹

C=CC(=O)N1C[C@@H](F)[C@H](n2cc(CN3C[C@H]4CC(=O)N(c5cc(C(F)(F)F)cc(C)n5)[C@@H]4C(=O)N(C)c4cccc(C)c43)cn2)C1 (single isomer, unassigned) [Example 325b]
Kinact/Kl: 870000 M⁻¹ s⁻¹

Cc1cc(C(F)(F)F)cc(N2C(=O)C[C@@H]3CN(Cc4ccc(NC(=O)C5=CCCNC5)cc4)c4c(C)cccc4N(C)C(=O)[C@H]32)n1 [Example 88, N-(4-(((3aR,11aS)-6,10-dimethyl-1-(6-methyl-4-(trifluoromethyl)pyridin-2-yl)-2,11-dioxo-1,2,3,3a,4,10,11,11a-octahydro-5H-benzo[b]pyrrolo[2,3-f][1,4]diazocin-5-yl)methyl)phenyl)-1,2,5,6-tetrahydropyridine-3-carboxamide]
Kinact/Kl: 4.75e+06 M⁻¹ s⁻¹

C=CC(=O)N1CCOc2ccc(CN3C[C@H]4CC(=O)N(c5cc(C(F)(F)F)cc(C)n5)[C@@H]4C(=O)N(C)c4cccc(Cl)c43)cc21 [Example 250, (3aR,11aS)-5-((4-acryloyl-3,4-dihydro-2H-benzo[b][1,4]oxazin-6-yl)methyl)-6-chloro-10-methyl-1-(6-methyl-4-(trifluoromethyl)pyridin-2-yl)-1,3a,4,5,10,11a-hexahydro-2H-benzo[b]pyrrolo[2,3-f][1,4]diazocine-2,11(3H)-dione]
Kinact/Kl: 530000 M⁻¹ s⁻¹

C=CC(=O)N1CC2(C1)CN(C(=O)CN1C[C@H]3CC(=O)N(c4cc(C(F)(F)F)cc(C)n4)[C@@H]3C(=O)N(C)c3cccc(F)c31)C[C@@H](C)N2 [Example 52, (3aR,11aS)-5-(2-((R)-2-acryloyl-6-methyl-2,5,8-triazaspiro[3.5]nonan-8-yl)-2-oxoethyl)-6-fluoro-10-methyl-1-(6-methyl-4-(trifluoromethyl)pyridin-2-yl)-1,3a,4,5,10,11a-hexahydro-2H-benzo[b]pyrrolo[2,3-f][1,4]diazocine-2,11(3H)-dione]
Kinact/Kl: 190000 M⁻¹ s⁻¹

C=CC(=O)N1CC2(CN(CCN3C[C@H]4CC(=O)N(c5cc(C(F)(F)F)cc(C)n5)[C@@H]4C(=O)N(C)c4cccc(Cl)c43)CCN2)C1 [Example 33, (3aR,11aS)-5-(2-(2-acryloyl-2,5,8-triazaspiro[3.5]nonan-8-yl)ethyl)-6-chloro-10-methyl-1-(6-methyl-4-(trifluoromethyl)pyridin-2-yl)-1,3a,4,5, 10,11a-hexahydro-2H-benzo[b]pyrrolo [2,3-f][1,4]diazocine-2,11(3H)-dione]
Kinact/Kl: 1.23e+06 M⁻¹ s⁻¹

C=CC(=O)Nc1ccc(CN2C[C@H]3CC(=O)N(c4cc(C(F)(F)F)cc(C)n4)[C@@H]3C(=O)N(C)c3cccc(Cl)c32)cc1C#N [Example 248, N-(4-(((3aR,11aS)-6-chloro-10-methyl-1-(6-methyl-4-(trifluoromethyl)pyridin-2-yl)-2,11-dioxo-1,2,3,3a,4,10,11,11a-octahydro-5H-benzo[b]pyrrolo[2,3-f][1,4]diazocin-5-yl)methyl)-2-cyanophenyl)acrylamide]
Kinact/Kl: 810000 M⁻¹ s⁻¹

Cc1cc(C(F)(F)F)cc(N2C(=O)C[C@@H]3CN(Cc4ccc5c(c4)CN(C(=O)/C=C/CN(C)C)C5CC#N)c4c(Cl)cccc4N(C)C(=O)[C@H]32)n1 (single isomer, unassigned) [Example 310b]
Kinact/Kl: 1.46e+06 M⁻¹ s⁻¹
